Test results as given in US20250051283A1, “THERAPEUTIC COMPOUNDS AND METHODS” (priority 2023, published 2025).
Where two headings read alike, the source gives them in different places.

Experiments:
EV-D68 2A^pro = EV-D68 2A^pro (Enterovirus D68, UniProt A0A097BW19); assay: FRET-based enzymatic assay of EV-D68 2Apro inhibition; type: biochemical; settings: for IC50: read-out: Enzymatic inhibitory activity IC50
Description: (§1) Protein expression and purification. EV-D68 2A^pro gene from strain US/KY/14-18953 was ordered from Genscript (Piscataway, NJ) in pET28b(+) vector with E. coli codon optimization. 2A^pro gene was subcloned into pE-SUMOstar vector according to the manufacturers protocol. Plasmid encoding WT-2A^pro was transformed into BL21(DE3) competent E. coli cells, and a single colony was picked and used to inoculate 10 mL of L.B. grown supplemented with 50 μg/mL kanamycin at 37° C. at 250 rpm. The 10 mL inoculant was added to 1 L of L.B. with 50 μg/mL kanamycin and grown to an OD600 of 0.8-1.0, cooled to 18° C., then induced using 0.5 mM IPTG. Induced cultures were incubated at 18° C. for an additional 24 h, then harvested and resuspended in lysis buffer (25 mM Tris (pH 7.5); 750 mM NaCl, 2 mM DTT with 0.5 mg/mL lysozyme, 0.5 mM PMSF and 0.02 mg/mL DNase I) and lysed with alternating sonication and French press cycles. The cell debris were removed by centrifugation at 12,000×g for 45 min […]. The supernatant was incubated with Ni-NTA resin for over 2 h at 4° C. on a rotator. The Ni-NTA resin was thoroughly washed with 50 mM imidazole in wash buffer (50 mM Tris (pH 7.5), 150 mM NaCl, and 2 mM DTT); for the SUMO-tagged protein, the protein was directly eluted with 300 mM imidazole; for the nontagged 2A^pro Ni-NTA resin was treated with SUMO Protease 1 to remove the SUMO tag, then 2A^pro was washed off from the column with 10 mM imidazole in wash buffer. The imidazole was removed via dialysis or 10 K molecular weight cut-off centrifugal concentrator spin column. The purity of the protein was confirmed with SDS-PAGE. The protein concentration was determined by classic BCA assay using bovine serum albumin as a standard. EV-D68 3C^pro in pET28b(+) vector was expressed as previously described^10.
(§2) Peptide synthesis. The FRET substrate of EV-D68 2A^pro, Dabcyl-KIRIVNT/GPGFGGE-Edans, was synthesized using the Fmoc solid phase synthesis strategy.
(§3) Enzymatic assays. The reaction buffer contains 50 mM Tris (pH7.0), 150 mM NaCl, 10% Glycerol, and 2 mM DTT, and the reaction was carried out at 30° C. in Cytation 5 imaging reader (Fisher Scientific) with EX360/40-EM460/40 filter. Reactions were monitored every 90 sec. […] The reaction was initiated by adding 20 μM of FRET substrate, and the reaction was monitored for 2 hours and initial velocity was calculated for the first 30 minutes via linear regression.

[1] = molecular target: T1, EV-D68 2A^pro (WT-2A^pro, strain US/KY/14-18953, expressed in E. coli BL21(DE3) from pE-SUMOstar vector) (enterovirus D68, UniProt A0A097BW19); assay: FRET-based enzymatic assay of EV-D68 2A^pro inhibition (FRET substrate Dabcyl-KIRIVNT/GPGFGGE-Edans); type: biochemical
T1 construct: E. coli-codon-optimised gene, pE-SUMOstar, His-SUMO tag (removed with SUMO protease for nontagged form), E. coli BL21(DE3), Ni-NTA; 7JRE is the C107A mutant
Description: (§4) FIG. 4. […] Key structural variations compared to telaprevir were highlighted in red. Enzymatic inhibitory activity IC50 value was determined in the FRET-based assay. Antiviral EC50 value was determined in the CPE assay with EV-D68 US/MO/14-18947 in R.D. cells. Cytotoxicity CC50 value was determined using the neutral red uptake method in R.D. cells. The results are the mean±standard deviation of two independent experiments with three repeats in each experiment.
as §4, with “5.” for “4.”, “Jun8861” for “telaprevir”
as §1, §2, §3

EV-D68 US/MO/14-18947 = assay: CPE assay (neutral red) with EV-D68 US/MO/14-18947 in R.D. cells; type: cell-based, Enterovirus D68
Description: Cell lines and viruses. Human rhabdomyosarcoma (R.D., ATCC, CCL-136) cells were maintained at 37° C. in a 5% CO2 atmosphere and cultured in Dulbecco's modified Eagle's medium (DMEM) supplemented with 10% fetal bovine serum (FBS) and 1% penicillin-streptomycin antibiotics. The following reagents were obtained through BEI Resources, NIAID, NIH: Human Enterovirus D68, US/MO/14-18949, NR-49130; Enterovirus D68, US/MO/14-18947, NR-49129; Enterovirus D68, US/IL/14-18952, NR-49131; Enterovirus D68, US/KY/14-18953, NR-49132; Enterovirus D68, US/IL/14-18956, NR-49133.
Antiviral assays. Cells for antiviral assays were seeded and grown overnight at 37° C. in a 5% CO2 atmosphere for ˜90% confluency the next day. For all infections, cells were washed with PBS containing magnesium and calcium and infected with virus diluted in DMEM with 2% FBS and 30 mM MgCl2. Viruses were incubated for at least 1 h at 33° C. in a 5% CO2 atmosphere, followed by the addition of compound as well as 1% penicillin-streptomycin. For CC50 measurements, the experiment was performed similarly but excluded viral infection. For cytopathic effect (CPE) assays, cells were stained with 66 µg/mL neutral red for 2 h and neutral red uptake was measured at absorbance 540 nm using a Multiskan FC Microplate Photometer (ThermoFisher Scientific). The EC50 and CC50 values were calculated from best-fit dose response curves using GraphPad Prism. For plaque reduction assays, an 1.2% avicel microcrystalline cellulose (FMC BioPolymer, Philadelphia, PA) overlay was used and cells were stained after 3 days as previously described^26.

[2] = CPE assay, EV-D68 US/MO/14-18947 in R.D. cells
[3] = Enterovirus D, EVD68, RD, read-out: Antiviral EC50, CPE assay, EV-D68 US/MO/14-18947 in R.D. cells

Compound | IC50 (EV-D68 2A^pro) [nM] | antiviral activity, in words, relative to the named comparator (EV-D68 US/MO/14-18947; [2]) | enzymatic inhibition, in words, relative to the named comparator (EV-D68 2A^pro) | further results
CCC[C@H](NC(=O)[C@@H]1[C@H]2CCC[C@H]2CN1C(=O)OCc1ccccc1)C(=O)C(=O)NC1CC1 [Jun7424, Benzyl (1S,3aR,6aS)-1-(((S)-1-(cyclopropylamino)-1,2-dioxohexan-3-yl)carbamoyl)hexahydrocyclopenta[c]pyrrole-2(1H)-carboxylate] | 4350 |  |  | 
CC(C)C[C@H](NC(=O)[C@@H]1[C@H]2CCC[C@H]2CN1C(=O)[C@@H](NC(=O)CC12CC3CC(CC(C3)C1)C2)C(C)(C)C)C(=O)C(=O)NC1CC1 [Jun11389, (1S,3aR,6aS)-2-((S)-2-(2-((3S,5S,7S)-adamantan-1-yl)acetamido)-3,3-dimethyl-butanoyl)-N—((S)-1-(cyclopropylamino)-5-methyl-1,2-dioxohexan-3-yl)octahydro-cyclopenta[c]pyrrole-1-carboxamide] |  | failed to improve the antiviral potency compared to Jun8861 |  | IC50 [1]: 260 ± 50 nM
CCC[C@H](NC(=O)[C@@H]1[C@H]2CCC[C@H]2CN1C(=O)[C@@H](NC(=O)NC12CC3CC(CC(C3)C1)C2)C(C)(C)C)C(=O)C(=O)NC1CC1 [Jun1023, (1S)-2-((S)-2-(3-((3R,5R,7R)-adamantan-1-yl)ureido)-3,3-dimethylbutanoyl)-N—((S)-1-(cyclopropylamino)-1,2-dioxohexan-3-yl)octahydrocyclopenta[c]pyrrole-1-carboxamide] |  |  | reduced enzymatic inhibition | EC50 (EV-D68 US/MO/14-18947; CPE assay, EV-D68 US/MO/14-18947 in R.D. cells, read-out: Antiviral EC50): 700 nM
CC(C)(C)[C@H](NC(=O)CC12CC3CC(CC(C3)C1)C2)C(=O)N1C[C@@H]2CCC[C@@H]2[C@H]1C(=O)N[C@@H](Cc1c[nH]c2ccccc12)C(=O)C(=O)NC1CC1 [Jun11862, (1S,3aR,6aS)-2-((S)-2-(2-((3S,5S,7S)-adamantan-1-yl)acetamido)-3,3-dimethylbutanoyl)-N—((S)-4-(cyclopropylamino)-1-(1H-indol-3-yl)-3,4-dioxobutan-2-yl)octahydrocyclopenta[c]pyrrole-1-carboxamide] |  | comparable enzymatic inhibition and antiviral activity as Jun11385 | comparable enzymatic inhibition and antiviral activity as Jun11385 | 
CCC[C@H](NC(=O)[C@@H]1[C@H]2CCC[C@H]2CN1C(=O)[C@@H](NC(C)=O)C(C)(C)C)C(=O)C(=O)NC1CC1 [Jun8862, (1S,3aR,6aS)-2-((S)-2-acetamido-3,3-dimethylbutanoyl)-N—((S)-1-(cyclopropylamino)-1,2-dioxohexan-3-yl)octahydrocyclopenta[c]pyrrole-1-carboxamide] | 940 |  |  | 
CCC[C@H](NC(=O)[C@@H]1[C@H]2CCC[C@H]2CN1C(=O)[C@@H](NC(=O)[C@@H](NC(=O)OCc1ccccc1)C1CCCCC1)C(C)(C)C)C(=O)C(=O)NC1CC1 [Jun7453, Benzyl ((S)-1-cyclohexyl-2-(((S)-1-((1S,3aR,6aS)-1-(((S)-1-(cyclopropylamino)-1,2-dioxohexan-3-yl)carbamoyl)hexahydrocyclopenta[c]pyrrol-2(1H)-yl)-3,3-dimethyl-1-oxobutan-2-yl)amino)-2-oxoethyl)carbamate] |  |  |  | IC50 [1]: 360 ± 20 nM; EC50 (EV-D68 US/MO/14-18947; [3]): 630 nM
CC(C)[C@H](NC(=O)[C@@H]1[C@H]2CCC[C@H]2CN1C(=O)[C@@H](NC(=O)CC12CC3CC(CC(C3)C1)C2)C(C)(C)C)C(=O)C(=O)NC1CC1 [Jun11718, (1S,3aR,6aS)-2-((S)-2-(2-((3S,5S,7S)-adamantan-1-yl)acetamido)-3,3-dimethylbutanoyl)-N—((S)-1-(cyclopropylamino)-4-methyl-1,2-dioxopentan-3-yl)octahydrocyclopenta[c]pyrrole-1-carboxamide] |  | comparable enzymatic inhibition and antiviral activity as Jun8861 | comparable enzymatic inhibition and antiviral activity as Jun8861 | 
CCC[C@H](NC(=O)[C@@H]1[C@H]2CCC[C@H]2CN1C(=O)[C@@H](NC(=O)NC(C)(C)C)C(C)(C)C)C(=O)C(=O)NC1CC1 [Jun9475, (1S,3aR,6aS)-2-((S)-2-(3-(tert-butyl)ureido)-3,3-dimethylbutanoyl)-N—((S)-1-(cyclopropylamino)-1,2-dioxohexan-3-yl)octahydrocyclopenta[c]pyrrole-1-carboxamide] | 1160 |  |  | 
(1S)-2-((S)-2-(2-((3S,5S,7S)-adamantan-1-yl)acetamido)-3,3-dimethylbutanoyl)-N-((2S)-4-(cyclopropylamino)-3-hydroxy-4-oxo-1-(thiophen-3-yl)butan-2 yl)octahydrocyclopenta[c]pyrrole-1-carboxamide [Jun11818] |  | comparable enzymatic inhibition and antiviral activity as Jun11385 | comparable enzymatic inhibition and antiviral activity as Jun11385 | 
CC(C)(C)C(NC(=O)CC12CC3CC(CC(C3)C1)C2)C(=O)N1CC2CCCC2C1C(=O)NC(Cc1ccc(F)cc1)C(=O)C(=O)NC1CC1 [Jun11763, (1S,3aR,6aS)-2-((S)-2-(2-((3S,5S,7S)-adamantan-1-yl)acetamido)-3,3-dimethylbutanoyl)-N—((S)-4-(cyclopropylamino)-1-(4-fluorophenyl)-3,4-dioxobutan-2-yl)octahydrocyclo-penta[c]pyrrole-1-carboxamide] | 150 |  |  | EC50 (EV-D68 US/MO/14-18947; [3]): 190 nM
CC(C)(C)[C@H](NC(=O)CC12CC3CC(CC(C3)C1)C2)C(=O)N1C[C@@H]2CCC[C@@H]2[C@H]1C(=O)N[C@@H](CC1CC1)C(=O)C(=O)NC1CC1 [Jun11761, (1S,3aR,6aS)-2-((S)-2-(2-((3S,5S,7S)-adamantan-1-yl)acetamido)-3,3-dimethylbutanoyl)-N—((S)-1-cyclopropyl-4-(cyclopropylamino)-3,4-dioxobutan-2-yl)octahydrocyclopenta[c]pyrrole-1-carboxamide] |  | failed to improve the antiviral potency compared to Jun8861 |  | IC50 [1]: 140 ± 10 nM
